These results are taken from ChEMBL document CHEMBL1201862, “PubChem BioAssay data set” (2004).

Assay in all cases: NCI tumour cell line growth inhibition, 48 h
Test [1] concerns CAKI-1.
Test [2] relates to CCRF-CEM.
The subject of test [3] is OVCAR-3.
Test [4] concerns ACHN.
The test system of test [5] is SNB-75.
In test [6] the test system is UACC-62.
Test [7] concerns OVCAR-4.
Test [8] concerns HT-29.
The subject of test [9] is EKVX.
Test [10] relates to UO-31.
Test [11] deals with SR.
In test [12] the test system is Hs-578T.
Test [13] concerns SN12C.
In test [14] the test system is SF-268.
The subject of test [15] is SK-MEL-2.
Test [16] deals with A549.
The test system of test [17] is MOLT-4.
For test [18], the system named is RPMI-8226.
Test [19] relates to SK-OV-3.
Test [20] deals with RXF 393.

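Protocol summary: plate cells (96-well), add compound at 5 concentrations, incubate 48 h, interpolate endpoints linearly. Here, GI50 denotes the concentration required for 50% inhibition of growth.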 Active and inactive are the calls of the source. Rule as the data show it: active = GI50 up to about 1.1 µM and inactive = higher.

Consider `C=C(C)C12OC1[C@@]1(C)C(=CC2=O)CCC(O)[C@@H]1C` (stereo partly drawn), for which the GI50 is 0.398 µM (active) in [1]; 0.726 µM (active) in test [2]; 3.68 µM (inactive) in test [3]; 0.417 µM (active) in [4]; 3.42 µM (inactive) in [5]; 3.66 µM (inactive) in test [6]. For the same compound, the GI50 in [7] is 3.45 µM (inactive); in test [8] it was 1.21 µM (inactive); in test [9], 1.94 µM (inactive); in [10] it was 1.49 µM (inactive); in test [11], 1.84 µM (inactive); in test [12], 1.75 µM (inactive). In addition, the GI50 in [13] is 1.36 µM (inactive); in [14] it was 2.14 µM (inactive); in test [15] it was 2.34 µM (inactive); in test [16], 1.42 µM (inactive); in test [17], 0.863 µM (active); in test [18] it was 2.43 µM (inactive).
`CC(=O)N1C(C(=O)NC2CCCCC2)CSC1c1ccccc1` (stereo not drawn): the GI50 in [1], in test [2], in [3], in [4], in test [19] and in test [5] was > 100 µM (inactive) throughout. Besides, the GI50 in [6], in [7], in test [8], in test [9], in [10] and in test [11] was > 100 µM (inactive) each time. For the same compound, the GI50 in [12], in test [13], in test [14], in test [15], in test [16] and in test [17] was > 100 µM (inactive) throughout. Besides, the GI50 in [18] is > 100 µM (inactive).
On to `CC(C)SC(=S)Sc1c(Cl)c(Cl)nc(Cl)c1Cl`, for which the GI50 in [1] was 2.84 µM (inactive); in [2] it was 1.91 µM (inactive); in test [3] it was 1.85 µM (inactive); in [4], 6.98 µM (inactive); in test [20], 4.57 µM (inactive); in [19], 17.8 µM (inactive). Further, the GI50 in test [6] was 9.35 µM (inactive); in [7] it was 13.6 µM (inactive); in test [8], 3.4 µM (inactive); in test [9], 8.22 µM (inactive); in test [10], 8 µM (inactive); in test [11], 2.83 µM (inactive). For the same compound, the GI50 in test [12] was 18.6 µM (inactive); in [13], 13 µM (inactive); in test [14] it was 16.9 µM (inactive); in test [15], 7.82 µM (inactive); in [16], 16.9 µM (inactive); in [17] it was 2.65 µM (inactive). Besides, in test [18], the GI50 is 1.75 µM (inactive).
For `CC(C)(C)OC(=O)[C@@H]1CCC(=O)N1C1(c2ccccc2)c2ccccc2-c2ccccc21`, the GI50 was 88.5 µM (inactive) in [1]; 23.8 µM (inactive) in test [2]; 27.4 µM (inactive) in test [3]; 26.9 µM (inactive) in [4]; 9.77 µM (inactive) in test [20]; > 100 µM (inactive) in test [19]. The GI50 is 25.9 µM (inactive) in test [5]; 33.6 µM (inactive) in test [6]; 28.6 µM (inactive) in [7]; 23.7 µM (inactive) in test [8]; 82.8 µM (inactive) in test [9]; 67.3 µM (inactive) in test [10]. Besides, the GI50 in test [11] is 38.5 µM (inactive); in test [12], 33.5 µM (inactive); in test [13], 39.3 µM (inactive); in [14], > 100 µM (inactive); in test [15] it was 26.2 µM (inactive); in test [16], 35.2 µM (inactive). For the same compound, in test [17], the GI50 is 25.9 µM (inactive).
As for `Cc1nn(C(=O)c2ccccc2O)c2c1C(c1ccc(O)cc1)SC(=N)N2` (stereo not drawn), the GI50 in test [1] is > 2.32 µM (inactive); in test [2], 1.7 µM (inactive); in [3] it was > 2.66 µM (inactive); in test [4], 0.951 µM (active); in test [20] it was 1.23 µM (inactive); in test [19] it was 2.25 µM (inactive). The GI50 in test [5] is 0.74 µM (active); in [6], 0.929 µM (active); in [7], > 2.12 µM (inactive); in test [8], > 6.9 µM (inactive); in [9], > 4 µM (inactive); in [10], 7.55 µM (inactive). Also, the GI50 in test [11] is 1.44 µM (inactive); in [12], 0.449 µM (active); in test [13] it was 1.79 µM (inactive); in test [14], 3.45 µM (inactive); in test [15], > 2.65 µM (inactive); in test [16], 1.26 µM (inactive). Further, the GI50 in [17] is 1.33 µM (inactive).
For `O=c1c(-c2ccccc2)nnc2n(Cc3ccccc3)c3ccccc3n12`, the GI50 in test [1] was > 100 µM (inactive); in test [2], > 100 µM (inactive); in [4] it was > 100 µM (inactive); in test [20], 95.1 µM (inactive); in test [5], > 100 µM (inactive); in test [7], > 100 µM (inactive). Also, the GI50 in test [8], in [9], in [10], in test [11], in test [12] and in [13] was > 100 µM (inactive) throughout. The GI50 in test [14], in test [15], in test [16] and in test [17] was > 100 µM (inactive) throughout.
Regarding `CC1(CO)COC(C)(C)OC1`, the GI50 in [2], in [3], in test [4], in test [20], in test [19] and in test [5] was > 100 µM (inactive) in each case. Further, the GI50 in test [7], in test [8], in test [10], in [11], in test [12] and in [13] was > 100 µM (inactive) in each case. Further, the GI50 in test [14], in test [16] and in [17] was > 100 µM (inactive) in each case.
In the case of `COc1ccc(C2=C(N)c3ccccc3C2=O)cc1`, the GI50 in test [1] is > 100 µM (inactive); in [2] it was > 100 µM (inactive); in test [3] it was > 100 µM (inactive); in test [4] it was 63.2 µM (inactive); in test [19], 43 µM (inactive); in [5], 27.7 µM (inactive). In addition, the GI50 was > 100 µM (inactive) in [6]; 96.4 µM (inactive) in [7]; > 100 µM (inactive) in test [8]; > 100 µM (inactive) in [9]; > 100 µM (inactive) in test [11]; 27.5 µM (inactive) in test [12]. For the same compound, the GI50 was > 100 µM (inactive) in test [13]; 33.7 µM (inactive) in [14]; > 100 µM (inactive) in test [15]; > 100 µM (inactive) in test [16]; > 100 µM (inactive) in test [17]; > 100 µM (inactive) in test [18].
